Reference: PMC11093745 (Nature Methods, 2024)

Biological target: T1, cAMPinG1 (Mus musculus, UniProt Q9DBC7, DEL187-189)
T1 construct: gene Prkar1a; PKA-R1α residues 108-186 and 190-381, N-terminus removed, cpGFP (from GCaMP6f) inserted in the β4–β5 loop replacing 187-189, engineered linkers/cpGFP, N-terminal RSET; expressed in HEK293T, lysate
Assay: sensor fluorescence titration in HEK293T lysate, Hill fit
Type: binding

T1 sequence (Q9DBC7 108-186, stated change not applied): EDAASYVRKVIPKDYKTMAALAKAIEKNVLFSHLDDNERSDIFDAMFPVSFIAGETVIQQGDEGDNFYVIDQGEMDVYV
T1 sequence (Q9DBC7 190-381, stated change not applied): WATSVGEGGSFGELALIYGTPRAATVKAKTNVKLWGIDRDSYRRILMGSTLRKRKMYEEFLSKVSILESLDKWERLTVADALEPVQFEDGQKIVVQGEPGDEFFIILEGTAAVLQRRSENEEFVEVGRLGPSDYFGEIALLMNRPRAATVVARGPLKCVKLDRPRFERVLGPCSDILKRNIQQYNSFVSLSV

- Kd: 12.2 µM
SMILES: Nc1nc2c(ncn2[C@@H]2O[C@@H]3COP(=O)(O)O[C@H]3[C@H]2O)c(=O)[nH]1 [cGMP]
